Results reported in PMC11429909, “Protein Structure Inspired Discovery of a Novel Inducer of Anoikis in Human Melanoma” (Cancers, 2024).

Key:
Format in all cases: cell-based, human
SK-MEL-5 cells [1] = test: Adherent versus floating cell quantification from images, SK-MEL-5; conditions: 20 µM, 3-day treatment, mean ± SEM (N = 4), controls 19.5 ± 3.2%
Protocol: After treatment of M14 and SK-MEL-5 cells with different concentrations of Dxr2-017 or vehicle for 3 or 8 days, as denoted, cell images were captured at 20X in a transmitted light channel using the EVOS™ M5000 Imaging System (Invitrogen (Waltham, MA, USA)). Western blots were performed as previously described by us. Briefly, cells were collected and lysed using RIPA lysis buffer (25 mM Tris-HCl pH 7.6, 150 mM NaCl, 1% NP-40, 1% sodium deoxycholate, and 0.1% SDS; Thermo Scientific^TM (Waltham, MA, USA), #89900), supplemented with protease and phosphatase inhibitor cocktail (Thermo Scientific^TM, #78442) and 1 mM of PMSF. […]
Figure 8 Dxr2-017 inhibits melanoma cell growth through induction of anoikis. […] Data are expressed as the percent of untreated control and are the mean ± SEM of three separate experiments. […] M14 and SK-MEL-5 cells were treated for eight days with 20 nM and 50 nM of Dxr2-017, respectively, and the phase of the cell cycle was determined by flow cytometry. […] (D) Adherent and floating cells were quantified from captured images. Data are the mean ± SEM (N = 4), expressed as a percentage to total cells. * Denotes p-value ≤ 0.05 compared to respective floating or attached cells. […]
We then assessed whether Dxr2-017 induced apoptosis. […]

SK-MEL-5 cells [2] = test: Cell cycle analysis by flow cytometry, SK-MEL-5; conditions: 50 nM, eight days
Protocol: (§1) A total of 1 × 10^4 M14 cells and 1 × 10^4 SK-MEL-5 cells were seeded into 10 cm culture dishes. Twenty-four hours later, cells were treated in replicates of N = 3, with Dxr2-017 at 20 nM for M14 and 50 nM for SK-MEL-5, or vehicle for controls for a total of eight days, with replacement of media, along with Dxr2-017 or vehicle, at day five. Cells were then collected, filtered to obtain single-cell suspensions, equal numbers of cells were fixed in 1 mL of 70% ethanol at 4 °C for 1 h, washed with PBS, and resuspended in 1 mL of Telford reagent (1 mM EDTA disodium salt, 2.5 U/mL RNAse A, 75 µM Propidium Iodide, and 0.1% Triton X-100 in PBS), and then incubated at 4 °C overnight. Cells were analyzed by flow cytometry (FACSCalibur analyzer, BD Biosciences). Cells were gated on forward scatter (FSC) versus side scatter (SCC) to remove debris, followed by gating of single cells using PI (FL2)-Area versus PI (FL2)-Width. Cell cycle analysis was performed on the PI (FL2)-Area parameter, and the percentages of cells within G0/G1, S, and G2/M phases were determined using Modfit LT 4.0.5.

M14 cells = test: Cell cycle analysis by flow cytometry, M14; conditions: 20 nM, eight days
Protocol: as §1

SMILES: c1ccc2sc(-c3ccc(CNc4ccc5nnnn5n4)o3)nc2c1 [Dxr2-017]
- floating cell population, percentage to total cells (SK-MEL-5 cells [1]): 60.8 ± 10.4%
- effect on cell cycle parameters (SK-MEL-5 cells [2]): little-to-no change in cell cycle parameters
- effect on cell cycle parameters (M14 cells): little-to-no change in cell cycle parameters
